Results taken from US12187706B2, “NLRP3 modulators” (INNATE TUMOR IMMUNITY, INC., priority 2019, dated 2025).

Tests used:
Type in all cases: cell-based
human TLR7 = target: T1, human TLR7 (Homo sapiens, UniProt Q9NYK1); experiment: In vitro human TLR7 reporter assay (HEK-Blue, NF-kB/AP1-inducible SEAP); details: HEK-Blue TLR7 cells, SEAP reporter; read-out: TLR7 Agonist EC50 value
T1 construct: host or cells: human HEK-Blue cells with NF-kB/AP1-inducible SEAP reporter
T1 sequence (Q9NYK1 27-1049): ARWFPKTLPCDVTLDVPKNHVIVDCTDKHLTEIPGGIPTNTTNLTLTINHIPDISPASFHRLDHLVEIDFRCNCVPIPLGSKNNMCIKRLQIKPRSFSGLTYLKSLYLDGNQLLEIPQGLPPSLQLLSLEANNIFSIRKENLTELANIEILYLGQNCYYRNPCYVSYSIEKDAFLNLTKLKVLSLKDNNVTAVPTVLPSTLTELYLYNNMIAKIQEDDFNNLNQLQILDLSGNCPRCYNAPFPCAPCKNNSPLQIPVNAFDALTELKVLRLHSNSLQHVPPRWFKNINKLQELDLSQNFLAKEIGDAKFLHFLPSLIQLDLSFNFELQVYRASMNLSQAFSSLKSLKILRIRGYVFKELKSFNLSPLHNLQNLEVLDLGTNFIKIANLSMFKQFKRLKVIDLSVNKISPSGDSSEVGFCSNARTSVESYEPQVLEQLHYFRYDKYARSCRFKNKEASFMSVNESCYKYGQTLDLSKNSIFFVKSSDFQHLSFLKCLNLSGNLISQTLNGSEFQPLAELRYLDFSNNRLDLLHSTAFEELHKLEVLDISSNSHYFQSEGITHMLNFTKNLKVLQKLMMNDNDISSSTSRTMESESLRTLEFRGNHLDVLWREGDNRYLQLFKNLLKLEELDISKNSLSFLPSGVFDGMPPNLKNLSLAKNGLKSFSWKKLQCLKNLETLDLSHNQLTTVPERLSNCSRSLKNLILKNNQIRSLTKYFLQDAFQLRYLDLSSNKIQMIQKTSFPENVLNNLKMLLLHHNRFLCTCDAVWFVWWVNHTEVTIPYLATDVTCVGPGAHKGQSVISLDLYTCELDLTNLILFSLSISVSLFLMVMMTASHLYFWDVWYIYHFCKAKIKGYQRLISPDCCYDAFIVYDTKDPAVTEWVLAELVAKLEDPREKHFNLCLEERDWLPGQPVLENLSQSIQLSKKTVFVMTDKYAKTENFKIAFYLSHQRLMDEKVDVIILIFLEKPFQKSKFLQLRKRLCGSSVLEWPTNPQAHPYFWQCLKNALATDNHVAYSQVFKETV
Method: (§1) In Vitro Human TLR7 and TLR8 Binding Reporter Assays Logarithmically-growing human HEK-Blue cells co-expressing a TLR7 or TLR8 gene and a NF-kB/AP1-inducible SEAP (secreted embryonic alkaline phosphatase; […] Cellular SEAP production is measured using an Envision plate reader instrument thirty minutes after adding freshly-made Quanti-Blue reagent (prepared by following manufacturer instructions; Invivogen, San Diego, CA) to the HEK-Blue TLR Nf-kB-SEAP cell reactions. All EC50 values (half-maximal effective concentration) are determined using proprietary data analysis software.

NLRP3 = target: T2, NLRP3 (Homo sapiens, UniProt Q96P20); experiment: Measurement of IL-1β production in PMA-differentiated THP-1 cells (NLRP3 hIL1B)
T2 construct: host or cells: PMA-differentiated THP-1 cells
T2 sequence (Q96P20 whole entry): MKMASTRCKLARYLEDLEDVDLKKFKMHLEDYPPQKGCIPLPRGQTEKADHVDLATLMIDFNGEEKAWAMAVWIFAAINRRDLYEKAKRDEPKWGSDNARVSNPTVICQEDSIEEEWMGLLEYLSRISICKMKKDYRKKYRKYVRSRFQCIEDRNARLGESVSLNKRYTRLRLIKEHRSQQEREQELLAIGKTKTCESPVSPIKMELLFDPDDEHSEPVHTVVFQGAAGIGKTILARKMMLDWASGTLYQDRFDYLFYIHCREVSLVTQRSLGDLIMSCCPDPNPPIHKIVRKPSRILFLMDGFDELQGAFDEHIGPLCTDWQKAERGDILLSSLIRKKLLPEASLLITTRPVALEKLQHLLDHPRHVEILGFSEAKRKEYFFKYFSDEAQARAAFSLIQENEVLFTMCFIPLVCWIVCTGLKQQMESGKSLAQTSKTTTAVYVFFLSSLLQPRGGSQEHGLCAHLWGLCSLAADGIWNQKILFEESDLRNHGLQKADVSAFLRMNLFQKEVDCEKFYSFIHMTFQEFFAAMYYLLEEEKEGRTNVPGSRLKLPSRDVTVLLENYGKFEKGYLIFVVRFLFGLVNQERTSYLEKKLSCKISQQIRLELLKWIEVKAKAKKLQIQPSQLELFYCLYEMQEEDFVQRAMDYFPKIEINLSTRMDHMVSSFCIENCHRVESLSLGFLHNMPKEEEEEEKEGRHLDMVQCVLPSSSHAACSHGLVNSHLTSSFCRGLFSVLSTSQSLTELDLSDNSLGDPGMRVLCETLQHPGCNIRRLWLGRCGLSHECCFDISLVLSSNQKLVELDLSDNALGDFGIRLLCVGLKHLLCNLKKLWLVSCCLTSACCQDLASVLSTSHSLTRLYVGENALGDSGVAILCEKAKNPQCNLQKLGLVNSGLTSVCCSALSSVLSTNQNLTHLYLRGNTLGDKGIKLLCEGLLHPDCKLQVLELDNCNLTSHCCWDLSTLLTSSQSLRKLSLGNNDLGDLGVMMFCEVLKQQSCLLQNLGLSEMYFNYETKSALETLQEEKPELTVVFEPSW
How it was run: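 THP-1 cells differentiated with PMA, then replated in RPMI with 2% FBS and exposed to compound for 4 h (alternative: 2 h; hTRF protocol: 2 h at 37 °C, top concentration 10 μM). Supernatant IL-1β was quantified by ELISA or HTRF. Final DMSO 1%, with vehicle control.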

human TLR8 = target: T3, human TLR8 (Homo sapiens, UniProt Q9NR97); experiment: In vitro human TLR8 reporter assay (HEK-Blue, NF-kB/AP1-inducible SEAP); details: at 62.5 μM
T3 construct: host or cells: human HEK-Blue cells with NF-kB/AP1-inducible SEAP reporter
T3 sequence (Q9NR97 27-1041): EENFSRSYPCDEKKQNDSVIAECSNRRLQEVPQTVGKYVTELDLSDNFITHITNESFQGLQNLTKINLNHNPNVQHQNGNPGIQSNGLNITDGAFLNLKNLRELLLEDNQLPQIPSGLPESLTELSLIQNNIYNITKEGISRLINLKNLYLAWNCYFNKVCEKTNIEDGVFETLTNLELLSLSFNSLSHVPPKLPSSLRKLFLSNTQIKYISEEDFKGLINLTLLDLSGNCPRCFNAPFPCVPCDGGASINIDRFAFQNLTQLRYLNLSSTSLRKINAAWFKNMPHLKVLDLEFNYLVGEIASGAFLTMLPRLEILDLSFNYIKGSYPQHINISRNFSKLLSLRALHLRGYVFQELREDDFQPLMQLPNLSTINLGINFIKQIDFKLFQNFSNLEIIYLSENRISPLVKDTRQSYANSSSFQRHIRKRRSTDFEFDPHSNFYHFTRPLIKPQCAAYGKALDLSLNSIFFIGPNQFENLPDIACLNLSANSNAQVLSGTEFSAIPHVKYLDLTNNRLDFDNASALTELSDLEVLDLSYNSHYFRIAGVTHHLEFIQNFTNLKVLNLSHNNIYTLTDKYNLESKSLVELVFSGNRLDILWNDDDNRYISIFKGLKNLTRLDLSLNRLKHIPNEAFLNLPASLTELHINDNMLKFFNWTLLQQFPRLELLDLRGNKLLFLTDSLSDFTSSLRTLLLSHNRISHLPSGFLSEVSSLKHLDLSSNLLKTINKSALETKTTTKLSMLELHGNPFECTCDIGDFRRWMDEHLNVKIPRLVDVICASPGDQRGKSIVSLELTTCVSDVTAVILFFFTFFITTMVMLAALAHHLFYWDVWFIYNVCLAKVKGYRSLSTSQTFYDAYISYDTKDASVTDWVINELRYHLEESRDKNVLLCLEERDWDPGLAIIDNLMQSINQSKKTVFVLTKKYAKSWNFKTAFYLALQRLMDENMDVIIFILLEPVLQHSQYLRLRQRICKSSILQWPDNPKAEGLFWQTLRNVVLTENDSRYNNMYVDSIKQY
Method: as §1

Structure (SMILES) | EC50 (human TLR7) [nM] | EC50 (NLRP3) [nM] | TLR8 activity (human TLR8) [%]
CCCC(CCO)Nc1nc(N)nc2cc(-c3ccn[nH]3)ccc12 (racemic) [Example 96, rac-3-((2-amino-7-(1H-pyrazol-5-yl)quinazolin-4-yl)amino)hexan-1-ol] | 1000 to 20000 | 690 | –
CCCC(CCO)Nc1nc(N)nc2cc(-c3ccn[nH]3)ccc12 (single isomer, unassigned) [Example 97, 3-((2-amino-7-(1H-pyrazol-5-yl)quinazolin-4-yl)amino)hexan-1-ol] | 1000 to 20000 | 710 | –
CCCCCNc1nc(N)nc2cc(-c3cc[nH]n3)cc(F)c12 [Example 125] | 1000 to 20000 | 710 | –
Cc1cccc2nc(CNc3nc(N)nc4cc(-c5ccn[nH]5)ccc34)cn12 [Example 161] | – | 2000 | –
CN(C)c1ccc(CNc2nc(N)nc3cc(-c4ccn[nH]4)ccc23)nn1 [Example 164, N4-((6-(dimethylamino)pyridazin-3-yl)methyl)-7-(1H-pyrazol-5-yl)quinazoline-2,4-diamine] | – | 1240 | –
CCn1cc(CNc2nc(N)nc3cc(-c4ccn[nH]4)ccc23)cn1 [Example 168] | – | 1280 | –
CO[C@H]1C[C@H](Nc2nc(N)nc3cc(-c4ccn[nH]4)ccc23)C1 [Example 173] | – | 140 | –
Nc1nc(NCc2cncs2)c2ccc(-c3ccn[nH]3)cc2n1 [Example 175] | – | 730 | –
Nc1nc(NC2CCC2)c2ccc(-c3ccn[nH]3)cc2n1 [Example 177] | – | 160 | –
Nc1nc(NOCCO)c2ccc(-c3ccn[nH]3)cc2n1 [Example 186] | – | 3000 | –
Nc1nc(NCc2ccn(-c3ccccn3)n2)c2ccc(-c3ccn[nH]3)cc2n1 [Example 187] | – | 230 | –
Cn1cnc(CNc2nc(N)nc3cc(-c4ccn[nH]4)ccc23)n1 [Example 189] | – | 1410 | –
CCn1cc(CNc2nc(N)nc3cc(-c4ccn[nH]4)ccc23)nn1 [Example 190] | – | 4890 | –
C[C@]1(O)C[C@@H](Nc2nc(N)nc3cc(-c4ccn[nH]4)ccc23)C1 [Example 191, (cis)-3-((2-amino-7-(1H-pyrazol-5-yl)quinazolin-4-yl)amino)-1-methylcyclobutan-1-ol] | – | 460 | –
C[C@]1(O)C[C@H](Nc2nc(N)nc3cc(-c4ccn[nH]4)ccc23)C1 [Example 192, (trans)-3-((2-amino-7-(1H-pyrazol-5-yl)quinazolin-4-yl)amino)-1-methylcyclobutan-1-ol] | – | 370 | –
Nc1nc(NCC2(CN3CCCC3)CC2)c2ccc(-c3cc[nH]n3)cc2n1 [Example 194] | – | 210 | –
Nc1nc(NCC2(CN3CCOCC3)CC2)c2ccc(-c3cc[nH]n3)cc2n1 [Example 195] | – | 300 | –
Nc1nc(NCC2(O)CC2)c2ccc(-c3cc[nH]n3)cc2n1 [Example 197] | – | 310 | –
Nc1nc(NCC2(CO)CC2)c2ccc(-c3ccn[nH]3)cc2n1 [Example 204] | – | 180 | –

Further lines, results first:

EC50 (human TLR7) [nM] | EC50 (NLRP3) [nM] | TLR8 activity (human TLR8) [%] | Structure (SMILES)
1000 to 20000 | 740 | – | CCCCC(CCO)Nc1nc(N)nc2cc(-c3ccn[nH]3)ccc12 (racemic) [Example 99, rac-3-((2-amino-7-(1H-pyrazol-5-yl)quinazolin-4-yl)amino)heptan-1-ol]
1000 to 20000 | 450 | – | CCCCC(CCO)Nc1nc(N)nc2cc(-c3ccn[nH]3)ccc12 (single isomer, unassigned) [Example 100, 3-((2-amino-7-(1H-pyrazol-5-yl)quinazolin-4-yl)amino)heptan-1-ol]
20000 to 100000 | 1200 | – | COCC(COC)Nc1nc(N)nc2cc(-c3ccn[nH]3)ccc12 [Example 79]
> 1000 | 200 | – | CCCCNc1nc(N)nc2cc(-c3ccn[nH]3)ccc12 [Example 92]
1000 to 20000 | 270 | – | CCCCCNc1nc(N)nc2cc(-c3ccn[nH]3)ccc12 [Example 93]
– | 4120 | < 50 | Cn1c(CCNc2nc(N)nc3cc(-c4ccn[nH]4)ccc23)nc2ccccc21 [Example 165]
– | 810 | – | Nc1nc(NC[C@H]2C[C@@H](O)C2)c2ccc(-c3ccn[nH]3)cc2n1 [Example 166]
– | 1240 | – | Nc1nc(NC[C@H]2C[C@H](O)C2)c2ccc(-c3ccn[nH]3)cc2n1 [Example 167]
– | 730 | – | Nc1nc(NCc2cnn(-c3ccccc3)c2)c2ccc(-c3ccn[nH]3)cc2n1 [Example 169]
– | 200 | – | Nc1nc(NCc2ncccc2F)c2ccc(-c3ccn[nH]3)cc2n1 [Example 170]
– | 270 | – | Nc1nc(NCc2ccccn2)c2ccc(-c3ccn[nH]3)cc2n1 [Example 171]
– | 2600 | – | COCCN1CCCC1CNc1nc(N)nc2cc(-c3ccn[nH]3)ccc12 (stereo not drawn) [Example 172]
– | 180 | – | Nc1nc(NCc2cnsc2)c2ccc(-c3ccn[nH]3)cc2n1 [Example 174]
– | 90 | – | Nc1nc(N[C@H]2C[C@H](CO)C2)c2ccc(-c3ccn[nH]3)cc2n1 [Example 176]
– | 710 | – | CC(C)(C)Nc1nc(N)nc2cc(-c3ccn[nH]3)ccc12 [Example 180]
– | 180 | – | CC(C)(C)CNc1nc(N)nc2cc(-c3ccn[nH]3)ccc12 [Example 181]
– | 130 | – | N#C[C@H]1CC[C@H](Nc2nc(N)nc3cc(-c4ccn[nH]4)ccc23)CC1 [Example 182]
– | 8320 | – | COc1cnnc(CNc2nc(N)nc3cc(-c4ccn[nH]4)ccc23)c1 [Example 188]
– | 100 | – | Nc1nc(NC2CC2)c2ccc(-c3cc[nH]n3)cc2n1 [Example 193]
– | 230 | – | COCC1(CNc2nc(N)nc3cc(-c4cc[nH]n4)ccc23)CC1 [Example 196]
